# Laboratory results: US20050037436A1, “Test systems and the use thereof for identifying and characterizing compounds” (priority 2000, published 2005)
# System: untransfected HEK-293 cells
# Experiment: Ca2+ imaging of untransfected or GFP-transfected HEK-293 cells (control)
# Assay type: cell-based, human
# Procedure: The intracellular free Ca^2+ concentration [Ca^2+]i was measured in COS-7 and HEK293 cells transiently transfected with the HC110-R-EGFP or β2-AR-EGFP construct using the calcium imaging method (see also FIG. 11). In each case 2×10^5 COS-7 and HEK293 cells were applied to a 42 mm cover glass coated with 1% gelatine in 55 mm tissue culture dishes with 5 ml of DMEM medium (with 10% FCS and pen/strep). The transfection took place with the aid of the non-liposomal transfection reagent FuGENE 6 (Roche Molecular Biochemicals, Mannheim). […] Constructs of the HC110-R full-length clone with a GFP tag fused in the correct reading frame, and the complete cDNA of the β2-adrenergic receptor which had likewise been provided with a GFP tag at the 3′ end, were transfected. […]
# Loading of the cells with 1 μM Fura-2/acetoxymethyl ester (Fura-2/AM) (Sigma, Deisenhofen) took place 48 h after the transfection in an Na^+-HBS solution (150 mM NaCl; 5.4 mM KCl; 1.8 mM CaCl2; 0.8 mM MgSO4 7H2O; 20 mM glucose; 20 mM Hepes in H2O, pH 7.3) at 37° C., 5% CO2 and 95% humidity for 30 min. After the incubation, the cells loaded with Fura-2/AM were examined under an inverted microscope (Zeiss, Axiovert, Germany) and, in parallel with this, in a digital imaging fluorescence microscope (PTI) and differentiated into transfected and untransfected cells at a wavelength of 440 and 490 nm respectively. […]
compound,measurement,value
"CC(C)C[C@H]1C(=O)O[C@H](Cc2ccc(N3CCOCC3)cc2)C(=O)N(C)[C@@H](CC(C)C)C(=O)O[C@H](C)C(=O)N(C)[C@@H](CC(C)C)C(=O)O[C@H](Cc2ccc(N3CCOCC3)cc2)C(=O)N(C)[C@@H](CC(C)C)C(=O)O[C@H](C)C(=O)N1C [BAY44-4400, cyclo(-D-Lac-L-MeLeu-D-p-morpholinyl-PhLac-L-MeLeu-)]",changes caused by substance,causes no changes in untransfected cells
